Test results as given in ChEMBL document CHEMBL5053546, “Peptidomimetic analogues of an Arg-Trp-x-x-Trp motif responsible for interaction of translocase MraY with bacteriophage ϕX174 lysis protein E” (Bioorg Med Chem, 2021).
pIC50: −log10 of the molar value. Values after ≈ are worked out from the molar mass of the structure shown. Active and inactive are the calls of the source. The calls are words filed in the database; no cut-off is given here.

What was measured:
Pseudomonas fluorescens = assay: Antibacterial activity against Pseudomonas fluorescence Pf-5 assessed as reduction in bacterial growth incubated overnight by microplate reader analysis; type: functional
Escherichia coli [1] = assay: Antibacterial activity against Escherichia coli K-12 assessed as reduction in bacterial growth incubated overnight by microplate reader analysis; type: functional
Bacillus subtilis [2] = assay: Antibacterial activity against Bacillus subtilis W23 assessed as reduction in bacterial growth incubated overnight by microplate reader analysis; type: functional
Escherichia coli [3] = assay: Inhibition of MraY overexpressed in Escherichia coli membrane using UDP-MurNAc-L-Ala-gamma-D-Glu-L-Lys(N epsilon-dansyl)-D-Ala-D-Ala as substrate at 200 ug/ml by fluoresence enhancement assay; type: cell membranes; details: dose 200.0 µg/ml
Staphylococcus aureus = assay: Antibacterial activity against Staphylococcus aureus MRSA JE2 USA300 assessed as reduction in bacterial growth by CLSI protocol based assay; type: functional
Enterococcus faecalis = assay: Antibacterial activity against high level aminoglycoside resistant Enterococcus faecalis ATCC 51299 assessed as reduction in bacterial growth by CLSI protocol based assay; type: functional
Klebsiella pneumoniae = assay: Antibacterial activity against ESBL positive Klebsiella pneumoniae ATCC 700603 assessed as reduction in bacterial growth by CLSI protocol based assay
Acinetobacter baumannii = assay: Antibacterial activity against multi drug resistant ESBL positive Acinetobacter baumannii NCTC 13420 assessed as reduction in bacterial growth by CLSI protocol based assay; type: functional
Enterobacter cloacae = assay: Antibacterial activity against ESBL positive Enterobacter cloacae NCTC 13405 assessed as reduction in bacterial growth by CLSI protocol based assay; type: functional
Pseudomonas aeruginosa [4] = assay: Antibacterial activity against multi drug resistant Pseudomonas aeruginosa NCTC 13437 assessed as reduction in bacterial growth by CLSI protocol based assay; type: functional
Escherichia coli [5] = assay: Inhibition of Escherichia coli MraY overexpressed in Escherichia coli membrane using UDP-MurNAc-L-Ala-gamma-D-Glu-L-Lys(N epsilon-dansyl)-D-Ala-D-Ala as substrate at 200 uM by continuous fluoresence assay relative to control; type: cell membranes
Escherichia coli [6] = assay: (§1) Inhibition of Escherichia coli MraY overexpressed in Escherichia coli membrane using UDP-MurNAc-L-Ala-gamma-D-Glu-L-Lys(N epsilon-dansyl)-D-Ala-D-Ala and undecaprenyl phosphate as substrate assessed as reduction in lipid II synthesis at 200 uM incubated for 30 mins in presence of [3H]-UDPGlcNAc by liquid scintillation counting analysis relative to control; type: cell membranes
Escherichia coli [7] = assay: Inhibition of MraY overexpressed in Escherichia coli membrane using UDP-MurNAc-L-Ala-gamma-D-Glu-L-Lys(N epsilon-dansyl)-D-Ala-D-Ala as substrate at 200 uM by continuous fluoresence assay; type: cell membranes
Escherichia coli [8] = assay: as §1, with “of” for “of Escherichia coli”, “analysis” for “analysis relative to control”; type: cell membranes
Escherichia coli [9] = assay: Antibacterial activity against Escherichia coli K-12 assessed as reduction in bacterial growth by NCCLS protocol based broth dilution method; type: functional
Bacillus subtilis [10] = assay: Antibacterial activity against Bacillus subtilis assessed as reduction in bacterial growth by NCCLS protocol based broth dilution method; type: functional
Pseudomonas aeruginosa [11] = assay: Antibacterial activity against Pseudomonas aeruginosa assessed as reduction in bacterial growth by NCCLS protocol based broth dilution method; type: functional
Escherichia coli [12] = assay: Bacteriostatic activity against Escherichia coli at 250 ug/ml incubated for 1 hr followed by alamar blue addition measured after 2 to 3 hrs by fluorescence based analysis; type: functional, organism-based; details: dose 250.0 µg/ml
[13] = Inhibition of MraY overexpressed in Escherichia coli membrane using UDP-MurNAc-L-Ala-gamma-D-Glu-L-Lys(N epsilon-dansyl)-D-Ala-D-Ala as substrate by continuous fluoresence assay; type: cell membranes
Escherichia coli [14] = assay: Bacteriocidal activity against Escherichia coli at 250 ug/ml incubated for 1 hr followed by alamar blue addition measured after 2 to 3 hrs by fluorescence based analysis; type: functional, organism-based; details: dose 250.0 µg/ml

| SMILES | MIC50 (Pseudomonas fluorescens) [µg/mL] | MIC50 (Escherichia coli [1]) [µg/mL] | MIC50 (Bacillus subtilis [2]) [µg/mL] | inhibition (Escherichia coli [3]) | MIC50 (Staphylococcus aureus) [µg/mL] | MIC50 (Enterococcus faecalis) [µg/mL] | MIC50 (Klebsiella pneumoniae) [µg/mL] | MIC50 (Acinetobacter baumannii) [µg/mL] | MIC50 (Enterobacter cloacae) [µg/mL] | MIC50 (Pseudomonas aeruginosa [4]) [µg/mL] | other results |
| --- | --- | --- | --- | --- | --- | --- | --- | --- | --- | --- | --- |
| CCCCCCCCNC(=O)CNC(=O)[C@@H](N)CCCCN | 18 (≈ 57.2 µM) | 10 (≈ 31.8 µM) | 2 (≈ 6.36 µM) | inactive | – | – | – | – | – | – | – |
| CCCCCCCCOC(=O)[C@H](Cc1c[nH]c2ccccc12)NC(=O)[C@@H](N)Cc1cnc[nH]1 | 21 (≈ 46.3 µM) | 8 (≈ 17.6 µM) | 12 (≈ 26.5 µM) | inactive | 16 (≈ 35.3 µM) | 8 (≈ 17.6 µM) | 64 (≈ 141 µM) | 64 (≈ 141 µM) | 32 (≈ 70.5 µM) | 8 (≈ 17.6 µM) | – |
| CCCCCCC(=O)Nc1ccc(C(=O)N[C@@H](CCCCN)C(=O)OC)c(OCc2ccccc2)c1 | 125 (≈ 251 µM) | 8 (≈ 16.1 µM) | 44 (≈ 88.4 µM) | – | > 256 | 16 (≈ 32.2 µM) | > 256 | > 256 | > 256 | > 256 | inhibition (Escherichia coli [5]): 36% |
| CCCCCCC(=O)N(CCc1c[nH]c2ccccc12)c1ccc(C(=O)N[C@@H](CCCCN)C(=O)OC)c(OCCc2c[nH]c3ccccc23)c1 | > 125 | 4 (≈ 5.76 µM) | 58 (≈ 83.6 µM) | – | > 256 | 16 (≈ 23.1 µM) | > 256 | > 256 | > 256 | > 256 | inhibition (Escherichia coli [6]): 21% |
| CCCCCCCCOC(=O)[C@H](Cc1c[nH]c2ccccc12)NC(=O)[C@@H](N)CCCNC(=N)N | 18 (≈ 38.1 µM) | 5 (≈ 10.6 µM) | 13 (≈ 27.5 µM) | inactive | > 256 | > 256 | > 256 | > 256 | > 256 | > 256 | MIC50 (Escherichia coli [9]): 31 µg/mL (≈ 65.6 µM); MIC50 (Bacillus subtilis [10]): 8 µg/mL (≈ 16.9 µM); MIC50 (Pseudomonas aeruginosa [11]): 40 µg/mL (≈ 84.6 µM); Activity (Escherichia coli [12]): Active |
| CCCCCCC(=O)N(Cc1ccccc1)c1ccc(C(=O)N[C@@H](CCCCN)C(=O)OC)c(OCc2ccccc2)c1 | 46 (≈ 78.3 µM) | 7 (≈ 11.9 µM) | 12 (≈ 20.4 µM) | – | > 256 | 16 (≈ 27.2 µM) | > 256 | > 256 | > 256 | > 256 | pIC50 [13]: 3.85; inhibition (Escherichia coli [5]): 62% |
| CCCCCCC(=O)Nc1ccc(C(=O)N[C@@H](CCCCN)C(=O)OC)c(OCCc2c[nH]c3ccccc23)c1 | 56 (≈ 102 µM) | 28 (≈ 50.8 µM) | 28 (≈ 50.8 µM) | – | > 256 | 64 (≈ 116 µM) | > 256 | > 256 | > 256 | > 256 | inhibition (Escherichia coli [6]): 12% |
| CCCCCCC(=O)N(Cc1ccccc1)c1ccc(C(=O)N[C@@H](CCCCN)C(=O)OC)c(OCCc2c[nH]c3ccccc23)c1 | > 125 | 4 (≈ 6.24 µM) | 28 (≈ 43.7 µM) | – | > 256 | 8 (≈ 12.5 µM) | > 256 | > 256 | > 256 | > 256 | inhibition (Escherichia coli [6]): 22% |

Now from value to molecule, other results behind:

| MIC50 (Pseudomonas fluorescens) [µg/mL] | MIC50 (Escherichia coli [1]) [µg/mL] | MIC50 (Bacillus subtilis [2]) [µg/mL] | inhibition (Escherichia coli [3]) | SMILES | MIC50 (Staphylococcus aureus) [µg/mL] | MIC50 (Enterococcus faecalis) [µg/mL] | MIC50 (Klebsiella pneumoniae) [µg/mL] | MIC50 (Acinetobacter baumannii) [µg/mL] | MIC50 (Enterobacter cloacae) [µg/mL] | MIC50 (Pseudomonas aeruginosa [4]) [µg/mL] | other results |
| --- | --- | --- | --- | --- | --- | --- | --- | --- | --- | --- | --- |
| 64 (≈ 148 µM) | 11 (≈ 25.4 µM) | 11 (≈ 25.4 µM) | inactive | CCCCCCCCOC(=O)[C@H](Cc1ccccc1)NC(=O)[C@@H](N)CCCNC(=N)N | – | – | – | – | – | – | – |
| > 125 | > 125 | 10 (≈ 17.7 µM) | – | CCCCCCCCNC(=O)c1ccc(NC(=O)[C@@H](N)CCCNC(=N)N)c(OCCc2c[nH]c3ccccc23)c1 | – | – | – | – | – | – | inhibition (Escherichia coli [7]): inactive; inhibition (Escherichia coli [8]): inactive |
| 45 (≈ 88.5 µM) | 9 (≈ 17.7 µM) | 10 (≈ 19.7 µM) | inactive | CCCCCCCCOC(=O)[C@H](Cc1c[nH]c2ccccc12)NC(=O)[C@@H](N)CCCNc1ncccn1 | – | – | – | – | – | – | – |
| 21 (≈ 36.7 µM) | 12 (≈ 21 µM) | 8 (≈ 14 µM) | – | CCCCCCCCOC(=O)[C@H](Cc1c[nH]c2ccccc12)NC(=O)[C@H](CCCNC(=N)N)NC(=O)OC(C)(C)C | – | – | – | – | – | – | – |
| 3 (≈ 5.99 µM) | 3 (≈ 5.99 µM) | 8 (≈ 16 µM) | inactive | CCCCCCCCCCOC(=O)[C@H](Cc1c[nH]c2ccccc12)NC(=O)[C@@H](N)CCCNC(=N)N | – | – | – | – | – | – | – |
| 20 (≈ 42.4 µM) | 3 (≈ 6.36 µM) | 7 (≈ 14.8 µM) | inactive | CCCCCCCCNC(=O)[C@H](Cc1c[nH]c2ccccc12)NC(=O)[C@@H](N)CCCNC(=N)N | – | – | – | – | – | – | Activity (Escherichia coli [14]): Active |
| 124 (≈ 276 µM) | 118 (≈ 262 µM) | 25 (≈ 55.6 µM) | inactive | CCCCCCCCOC(=O)[C@H](Cc1ccc(O)cc1)NC(=O)[C@@H](N)CCCNC(=N)N | – | – | – | – | – | – | – |
| > 125 | 30 (≈ 54.6 µM) | 10 (≈ 18.2 µM) | – | CCCCCCCCc1ccc(C(=O)N[C@@H](CCCNC(=N)N)C(=O)O)c(OCCc2c[nH]c3ccccc23)c1 | – | – | – | – | – | – | inhibition (Escherichia coli [7]): inactive; inhibition (Escherichia coli [8]): inactive |
| 53 (≈ 119 µM) | 37 (≈ 83.2 µM) | 13 (≈ 29.2 µM) | inactive | CCCCCCOC(=O)[C@H](Cc1c[nH]c2ccccc12)NC(=O)[C@@H](N)CCCNC(=N)N | – | – | – | – | – | – | – |
| 26 (≈ 58.6 µM) | 17 (≈ 38.3 µM) | 11 (≈ 24.8 µM) | inactive | CCCCCCCCNC(=O)[C@H](Cc1c[nH]c2ccccc12)NC(=O)[C@@H](N)CCCCN | – | – | – | – | – | – | Activity (Escherichia coli [14]): Active |
| 19 (≈ 36.9 µM) | 42 (≈ 81.6 µM) | 9 (≈ 17.5 µM) | – | CCCCCCCCOC(=O)[C@H](Cc1c[nH]c2ccccc12)NC(=O)[C@H](CCCNC(=N)N)NC(C)=O | – | – | – | – | – | – | – |
| 5 (≈ 11.2 µM) | 2 (≈ 4.5 µM) | 1 (≈ 2.25 µM) | inactive | CCCCCCCCOC(=O)[C@H](Cc1c[nH]c2ccccc12)NC(=O)[C@@H](N)CCCCN | – | – | – | – | – | – | Activity (Escherichia coli [14]): Active |
